Experimental data as given in patent publication US8642502B2, “Reversible gel-forming compositions for controlled delivery of bioactive substances” (TRGel, LLC, priority 2010, dated 2014).

Assays:
[1] = Solubility of DM monomers and polymers in solvents; format: physicochemical
Excerpt: The DM monomers as prepared by the methods exemplified in Examples 1-5 above were converted to polymers by the anionic polymerization reaction as illustrated in Reaction Scheme A and the physical properties of homopolymers of differing monomers are presented in Table 1. With reference to Table 1 it should be noted that all of the resulting polymers have very low poly dispersity (Mw/Mn). […] Water-soluble polymers are particularly useful in biological applications such as surface protection from non-specific adsorption. The data also illustrates that the glass transition temperature (Tg) of polymers with alkyl substituents decreases as the alkyl chain length increases. […] The DM polymers wherein R=2-methoxyethyl and R=ethoxy-2-methoxyethyl show lower critical solution temperature (LCST) behavior.

[2] = Solubility of trans-stilbene oxide in water vs 10% copolymer solution (UV spectra); format: physicochemical; conditions: in 10% solution of p-MDM/DGDM copolymer
Description: Solutions of trans-stilbene oxide were prepared in water and in a 10% solution of p-MDM/DGDM copolymer.

SMILES | solubility (in words) [1] | solubility relative to solubility in water [2]
CCCCCCCCCCO[C@H]1[C@@H]2O[C@@H]2[C@@H]2OC[C@H]1O2 [DDM, 1,6:2,3-dianhydro-4-O-decyl-β-D-mannopyranose] | soluble in hexane | –
COCCOC1C2COC(O2)C2OC12 [MEDM, 1,6:2,3-dianhydro-4-O-(2-methoxyethyl)-β-D-mannopyranose] | soluble in water | –
c1ccc([C@@H]2O[C@H]2c2ccccc2)cc1 (relative stereo) [trans-stilbene oxide] | – | improved
